Test results reported in PubChem BioAssay AID179 (DTP/NCI, 2004).
Several values for one entry are separate records, joined by “and”; a condition that tells them apart may be missing. Identical values can stand only once. Activity calls are given as the source filed them.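 The calls were made as follows: active = compounds giving half or more protection of infected cells from virus-caused growth loss, again on retest; inactive = the rest.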

Test system: CEM cells HIV-1 protection, formazan growth assay
Test: NCI AIDS Antiviral Assay
Settings: for IC50: measured here: growth of uninfected CEM cells
Summary of the method: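 CEM (human) cells, HIV-1 infected vs uninfected, 5-point dosing, formazan growth read-out. Retest threshold 50% protection.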

Structure (SMILES) | EC50 [µM] | IC50 | outcome
CCOC(=O)CSc1nc(-c2ccc(Cl)cc2)c(C#N)c(=O)[nH]1 | > 200 | 93.3 µM | –
Cc1cc(-c2ccco2)c(C#N)c(=S)n1C1OC(CO)C(O)C(O)C1O (stereo not drawn) | > 200 | > 200 µM | –
O=C(CC1(O)C(=O)Nc2ccc(Br)cc21)c1ccc(Cl)cc1Cl (stereo not drawn) | > 162 | 95.5 µM | –
Cc1ccc(C(=O)O)c(/C=C2\Cc3ccc(C)cc3C2=O)c1 | > 200 | 97.7 µM | –
CN1CCOC1(C)CO (stereo not drawn) | > 200 | > 200 µM | –
OCCN(CC(O)C(O)CN(CCO)C(=S)S)C(=S)S (stereo not drawn) | > 58.9 | > 58.9 µM | –
COc1cc2ccc(=O)oc2c2c1OC(C)(C)[C@H](OC(=O)C13CCC(C)(C(=O)O1)C3(C)C)[C@@H]2OC(=O)C12CCC(C)(C(=O)O1)C2(C)C (stereo partly drawn) | > 200 | > 200 µM | –
O=C(Nc1cccc(C(=O)Nc2ccc(C3=NCCN3)cc2)c1)c1ccc(C2=NCCN2)cc1 | 9.12 | 155 µM | –
Cc1cccnc1NC(=S)Nc1cccc(C(F)(F)F)c1 | > 200 | 16.2 µM | –
CCOc1ccc(NC(=O)CC2C(=O)Nc3ccccc3S2=O)cc1 (stereo not drawn) | > 7.59 | > 7.59 µM | –
CCOC(OC1=C(C#N)CCCC1)C(C)[Se]c1ccccc1 (stereo not drawn) | > 20 | > 20 µM | –
CC(C)(Oc1ccc2c(=O)cc(-c3ccccc3)oc2c1)C(=O)Nc1c(Cl)cccc1Cl | > 11.2 | > 11.2 µM | –
O=C1CC(c2ccc[nH]2)=NN1c1ccccc1 | > 200 | 83.2 µM | –
CCCO/N=C\c1c2c(O)c3c(O)c(C)c4c(c3c1O)C(=O)C(C)(O/C=C\C(OC)C(C)C(OC(C)=O)C(C)C(O)C(C)C(O)C(C)/C=C\C=C(\C)C(=O)N2)O4 (stereo not drawn) | > 100 | 5.25 µM | –
CCNCCCCNCCCCNCCCCNCCCCNCC | > 2190 | 12.3 µM | –
CCCNC(=O)C(C)(Cl)C(=O)c1ccccc1O (stereo not drawn) | > 479 | 209 µM | –
CCCCCCCCCCCC(=O)OCCOCCOCCOCCOCCOC(=O)CCCCCCCCCCC | – | – | inactive
CCOC(=O)NC(=O)c1cn(CCSCCOC(=O)NCCCCCCNC(=O)OCCSCCn2cc(C(=O)NC(=O)OCC)c(=O)n(C)c2=O)c(=O)n(C)c1=O | > 8.32 | > 8.32 µM | –
CC1(C)CCc2ccc(OCCC(=O)O)cc2O1 | – | – | inactive
COc1ccc2c(c1)CC[C@@H]1[C@@H]2CC[C@]2(C)/C(=N/OCCN3CCCC3)CC[C@@H]12 | > 200 | 1.12 µM | –
CCOC(=O)C(C#N)C(C)CC (stereo not drawn) | > 200 | > 200 µM | –

Structure (SMILES) | EC50 [µM] | IC50 | outcome
CC1(N)COP(=O)(NCc2ccccc2)OC1 (stereo not drawn) | > 676 | 589 µM | –
CCOC(=O)c1c(-c2ccc(OC)cc2)c(C#N)c(=S)n(C2OC(COC(C)=O)C(OC(C)=O)C(OC(C)=O)C2OC(C)=O)c1C (stereo not drawn) | > 200 | 42.7 µM and 33.9 µM | –
COC(=O)c1c(C)c2c(c(C)c1C(=O)OC)-c1c(C)ccc3ccc(C)c-2c13 | > 100 | 3.72 µM | –
CC12c3ccccc3C(c3ccccc31)C1C(=O)OC(=O)C12 (stereo not drawn) | > 135 | 21.4 µM | –
O=C(c1ccccc1)N1CCCCC(Cl)C1=O (stereo not drawn) | > 1000 | > 1000 µM | –
Cc1ncc([N+](=O)[O-])n1CCNC(=O)CCC(=O)NCCCn1ccnc1[N+](=O)[O-] | > 200 | > 200 µM | –
OC(Cc1ccc2ccccc2n1)(C(F)(F)F)C(F)(F)F | > 200 | > 200 µM | –
CN1C2C=CC(=O)C1C1C(=O)N(c3ccccc3)C(=O)C12 (stereo not drawn) | > 891 | 5.25 µM | –
CC(=Nc1ccncc1)C(C)=Nc1ccncc1 | 20.9 | 36.3 µM | –
COC(=O)C1=C(C)N2CCCOC2(C)C(C(=O)OC)C1c1cccc(Cl)c1 (stereo not drawn) | > 200 | 112 µM | –
CC(C)CCCC(C)[C@H]1CCC2[C@@H]3CCC4Nc5c(cnn5-c5ccccc5)C[C@]4(C)C3CC[C@@]21C (stereo partly drawn) | – | – | inactive
CC(C)CC(NC(=O)C(O)C(N)Cc1ccccc1)C(=O)O (stereo not drawn) | > 17 | > 17 µM | –
CC(C)=C1C(=O)N(c2ccccc2)N(c2ccccc2)C1=O | > 200 | 79.4 µM | –
CCN(C(C)=N)c1ccccc1 | > 295 | 67.6 µM | –
Cc1c(C)c(C)c(-n2c(=O)n(C)c(=O)n2-n2c(=O)n(C)c(=O)n2-c2c(C)c(C)c(C)c(C)c2C)c(C)c1C | > 100 | 6.31 µM | –
C1=C(N2CCOCC2)N(c2ccccc2)c2ccccc2N=C1N1CCCC1 | – | – | inactive
O=C1C(c2ccc([N+](=O)[O-])cc2)=[N+]([O-])c2ccc([N+](=O)[O-])cc21 | – | – | inactive
C/C(=N\NC(N)=O)C(CN(C)C)C(c1ccccc1)c1c(O)c2ccccc2oc1=O (stereo not drawn) | > 91.2 | 66.1 µM | –
O=C(O/N=C1/CCCC/C1=C\c1ccccc1)c1ccc(Cl)c(Cl)c1 | – | – | inactive
COc1cc2ccc(C(=O)NCCCNC(=O)c3ccc4cc(OC)c(OC)cc4c3)cc2cc1OC | 126 | > 200 µM | –
O=[N+]([O-])c1ccc(C(Nc2ccccc2)P(c2ccccc2)c2ccccc2)cc1 (stereo not drawn) | > 200 | 43.7 µM | –
